According to US20260297085A1, “1 H-PYRROLO[2,3-B]PYRIDIN-4-YL]-2-OXOPYRROLIDINE-3-CARBONITRILE DERIVATIVES AS TYROSINE KINASE 2 (TYK2) INHIBITORS FOR THE TREATMENT OF INFLAMMATORY DISEASES” (BIOGEN MA INC., priority 2023, published 2026):
Where a name gives a salt, the structure may show the parent alone.

Key:
[1] = molecular target: T1, human TYK2 kinase domain (JH1) (Homo sapiens, UniProt P29597); assay: JH1 biochemical assay for TYK2 (ADP-Glo kinase assay, recombinant JH1 catalytic domain, JAK3-974 peptide, 10 μM ATP)
T1 construct: recombinantly generated catalytic kinase (also known as JH1) domain of human JAK1, JAK2, JAK3 and TYK2
T1 sequence (P29597 897-1176 limits assumed): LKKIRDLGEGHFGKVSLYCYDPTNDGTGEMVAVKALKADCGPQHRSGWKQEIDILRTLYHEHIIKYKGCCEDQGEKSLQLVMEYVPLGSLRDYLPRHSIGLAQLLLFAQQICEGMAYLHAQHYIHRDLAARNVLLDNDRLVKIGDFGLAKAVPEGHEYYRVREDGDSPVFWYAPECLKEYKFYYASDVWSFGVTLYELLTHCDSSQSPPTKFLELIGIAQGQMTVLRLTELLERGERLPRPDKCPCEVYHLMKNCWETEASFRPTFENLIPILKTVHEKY
Procedure, shortened: (§1)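 Compounds were titrated in 11 points of 3-fold dilution starting at 10 μM or 1 μM. Enzyme (JAK1 4 nM, JAK2 0.2 nM, JAK3 0.3 nM, TYK2 2 nM) and 50 μM peptide reacted for 100 minutes, followed by ADP-to-luminescence detection; IC50 by 4-parameter fit.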

[2] = molecular target: T2, human JAK1 kinase domain (JH1) (Homo sapiens, UniProt P23458); assay: JH1 biochemical assay for JAK1 (ADP-Glo kinase assay, recombinant JH1 catalytic domain, JAK3-342 peptide, 35 μM ATP)
T2 construct: recombinantly generated catalytic kinase (also known as JH1) domain of human JAK1, JAK2, JAK3 and TYK2
Procedure, shortened: as §1

[3] = molecular target: T3, human JAK2 kinase domain (JH1) (Homo sapiens, UniProt O60674); assay: JH1 biochemical assay for JAK2 (ADP-Glo kinase assay, recombinant JH1 catalytic domain, JAK3-974 peptide, 15 μM ATP)
T3 construct: recombinantly generated catalytic kinase (also known as JH1) domain of human JAK1, JAK2, JAK3 and TYK2
Procedure, shortened: as §1

[4] = molecular target: T4, human JAK3 kinase domain (JH1) (Homo sapiens, UniProt P52333); assay: JH1 biochemical assay for JAK3 (ADP-Glo kinase assay, recombinant JH1 catalytic domain, JAK3-974 peptide, 4 μM ATP)
T4 construct: recombinantly generated catalytic kinase (also known as JH1) domain of human JAK1, JAK2, JAK3 and TYK2
Procedure, shortened: as §1

T3 sequence (O60674 849-1124 limits assumed): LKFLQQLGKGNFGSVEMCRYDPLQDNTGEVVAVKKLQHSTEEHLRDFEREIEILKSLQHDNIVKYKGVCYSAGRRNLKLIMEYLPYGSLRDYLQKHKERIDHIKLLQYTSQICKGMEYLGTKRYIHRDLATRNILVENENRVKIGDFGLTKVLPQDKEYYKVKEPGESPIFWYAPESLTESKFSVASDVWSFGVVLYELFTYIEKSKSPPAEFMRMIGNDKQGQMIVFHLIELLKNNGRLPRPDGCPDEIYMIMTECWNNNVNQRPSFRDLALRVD
T4 sequence (P52333 822-1111 limits assumed): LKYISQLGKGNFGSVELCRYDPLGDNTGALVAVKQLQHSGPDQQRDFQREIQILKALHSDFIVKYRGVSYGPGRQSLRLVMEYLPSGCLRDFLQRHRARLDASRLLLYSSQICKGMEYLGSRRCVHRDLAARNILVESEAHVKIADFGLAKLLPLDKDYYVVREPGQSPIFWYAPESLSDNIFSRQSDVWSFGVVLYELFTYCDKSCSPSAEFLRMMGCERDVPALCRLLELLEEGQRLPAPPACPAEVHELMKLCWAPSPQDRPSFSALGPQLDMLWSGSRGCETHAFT
T2 sequence (P23458 875-1153 limits assumed): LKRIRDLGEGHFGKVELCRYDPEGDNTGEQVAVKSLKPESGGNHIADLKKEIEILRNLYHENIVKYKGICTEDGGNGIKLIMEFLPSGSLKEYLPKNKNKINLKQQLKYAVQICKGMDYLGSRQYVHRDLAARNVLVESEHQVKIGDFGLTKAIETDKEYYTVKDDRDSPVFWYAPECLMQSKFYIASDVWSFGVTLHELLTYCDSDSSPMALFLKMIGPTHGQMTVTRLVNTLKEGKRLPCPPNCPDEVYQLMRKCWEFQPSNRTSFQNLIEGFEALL

Row | IC50 ([1]; TYK2 JH1, ADP-Glo) | IC50 ([2]; JAK1 JH1, ADP-Glo) | IC50 ([3]; JAK2 JH1, ADP-Glo) | IC50 ([4]; JAK3 JH1, ADP-Glo) | IC50 ([1]; JH1 kinase domain, ADP-Glo) | IC50 ([2]; JH1 kinase domain, ADP-Glo) | IC50 ([3]; JH1 kinase domain, ADP-Glo) | IC50 ([4]; JH1 kinase domain, ADP-Glo) | Structure (SMILES)
1 | 5 to 20 nM | 100 to 1000 nM | 100 to 1000 nM | 100 to 1000 nM | – | – | – | – | C[C@@H]1CN(c2nc(-c3cncc(F)c3)cn3nccc23)C(=O)[C@]1(C#N)C1CC1 [Example 246, (3R,4S)-3-cyclopropyl-1-(6-(5-fluoropyridin-3-yl)pyrazolo[1,5-a]pyrazin-4-yl)-4-methyl-2-oxopyrrolidine-3-carbonitrile trifluoroacetate]
2 | > 100 nM | 1000 to 5000 nM | 5000 to 10000 nM | 1000 to 5000 nM | – | – | – | – | C[C@@H]1CN(c2nc(-c3cnn(C)c3)cc3nccn23)C(=O)[C@]1(C#N)C1CC1 [Example 269, (3R,4S)-3-cyclopropyl-4-methyl-1-(7-(1-methyl-1H-pyrazol-4-yl)imidazo[1,2-c]pyrimidin-5-yl)-2-oxopyrrolidine-3-carbonitrile]
3 | > 100 nM | > 10000 nM | > 10000 nM | > 10000 nM | – | – | – | – | C[C@@H]1CN(c2nc(-c3ncc[nH]3)cn3nccc23)C(=O)[C@]1(C#N)C1CC1 [Example 247, (3R,4S)-1-(6-(1H-imidazol-2-yl)pyrazolo[1,5-a]pyrazin-4-yl)-3-cyclopropyl-4-methyl-2-oxopyrrolidine-3-carbonitrile trifluoroacetate]
4 | > 100 nM | > 10000 nM | 100 to 1000 nM | > 10000 nM | – | – | – | – | C[C@@H]1CN(c2n[nH]c3ncc(-c4cnn(C)c4)cc23)C(=O)[C@]1(C#N)C1CC1 [Example 274, (3R,4S)-3-cyclopropyl-4-methyl-1-(5-(1-methyl-1H-pyrazol-4-yl)-1H-pyrazolo[3,4-b]pyridin-3-yl)-2-oxopyrrolidine-3-carbonitrile]
5 | > 100 nM | 1000 to 5000 nM | 1000 to 5000 nM | 1000 to 5000 nM | – | – | – | – | Cc1ncn(-c2cc3c(N4C[C@@H](C)[C@@](C#N)(C5CC5)C4=O)ccnn3c2)n1 [Example 342, (3R,4S)-3-cyclopropyl-4-methyl-1-(6-(3-methyl-1H-1,2,4-triazol-1-yl)pyrrolo[1,2-b]pyridazin-4-yl)-2-oxopyrrolidine-3-carbonitrile]
6 | – | – | – | – | 50 to 100 nM | 1000 to 5000 nM | 1000 to 5000 nM | 1000 to 5000 nM | Cc1ncc(-c2cc3c(N4C[C@@H](C)[C@@](C#N)(C5CC5)C4=O)ccnn3c2)cn1 [Example 80, (3R,4S)-3-cyclopropyl-4-methyl-1-(6-(2-methylpyrimidin-5-yl)pyrrolo[1,2-b]pyridazin-4-yl)-2-oxopyrrolidine-3-carbonitrile]
7 | – | – | – | – | 20 to 50 nM | 100 to 1000 nM | 1000 to 5000 nM | 100 to 1000 nM | C[C@@H]1CN(c2ccnn3cc(-c4cnn(C)n4)cc23)C(=O)[C@]1(C#N)C1CC1 [Example 99, (3R,4S)-3-cyclopropyl-4-methyl-1-(6-(2-methyl-2H-1,2,3-triazol-4-yl)pyrrolo[1,2-b]pyridazin-4-yl)-2-oxopyrrolidine-3-carbonitrile trifluoroacetate]
8 | – | – | – | – | > 100 nM | > 10000 nM | > 10000 nM | 5000 to 10000 nM | C[C@@H]1CN(c2ccnn3cc(-c4ncn(C)n4)cc23)C(=O)[C@]1(C#N)C1CC1 [Example 115, (3R,4S)-3-cyclopropyl-4-methyl-1-(6-(1-methyl-1H-1,2,4-triazol-3-yl)pyrrolo[1,2-b]pyridazin-4-yl)-2-oxopyrrolidine-3-carbonitrile trifluoroacetate]

The remaining lines, values behind:

Row | Structure (SMILES) | IC50 ([1]; TYK2 JH1, ADP-Glo) | IC50 ([2]; JAK1 JH1, ADP-Glo) | IC50 ([3]; JAK2 JH1, ADP-Glo) | IC50 ([4]; JAK3 JH1, ADP-Glo) | IC50 ([1]; JH1 kinase domain, ADP-Glo) | IC50 ([2]; JH1 kinase domain, ADP-Glo) | IC50 ([3]; JH1 kinase domain, ADP-Glo) | IC50 ([4]; JH1 kinase domain, ADP-Glo)
9 | CC[C@@H]1C[C@](C#N)(C2CC2)C(=O)N1c1ccnn2cc(-c3cnn(C)c3)cc12 [Example 33, (3R,5R)-3-cyclopropyl-5-ethyl-1-(6-(1-methyl-1H-pyrazol-4-yl)pyrrolo[1,2-b]pyridazin-4-yl)-2-oxopyrrolidine-3-carbonitrile] | – | – | – | – | > 100 nM | 5000 to 10000 nM | 1000 to 5000 nM | 5000 to 10000 nM
10 | Cn1cc(-c2cc3c(N4CC[C@](C#N)(C5COC5)C4=O)ccnn3c2)cn1 (single isomer, unassigned) [Example 44] | – | – | – | – | > 100 nM | > 10000 nM | > 10000 nM | > 10000 nM
11 | CC[C@]1(C#N)CCN(c2ccnn3cc(-c4cnn(C)c4)cc23)C1=O (single isomer, unassigned) [Example 42] | – | – | – | – | 50 to 100 nM | 1000 to 5000 nM | 1000 to 5000 nM | 1000 to 5000 nM
12 | C[C@@H]1CN(c2nc(-c3cccnc3OC(F)F)cn3nccc23)C(=O)[C@]1(C#N)C1CC1 [Example 256, (3R,4S)-3-cyclopropyl-1-(6-(2-(difluoromethoxy)pyridin-3-yl)pyrazolo[1,5-a]pyrazin-4-yl)-4-methyl-2-oxopyrrolidine-3-carbonitrile trifluoroacetate] | > 100 nM | > 10000 nM | 1000 to 5000 nM | 1000 to 5000 nM | – | – | – | –
13 | C[C@@H]1CN(c2ccnn3cc(-c4cccnc4OC(F)F)cc23)C(=O)[C@]1(C#N)C1CC1 [Example 50, (3R,4S)-3-cyclopropyl-1-(6-(2-(difluoromethoxy)pyridin-3-y1)pyrrolo[1,2-b]pyridazin-4-yl)-4-methyl-2-oxopyrrolidine-3-carbonitrile] | – | – | – | – | 50 to 100 nM | 1000 to 5000 nM | 1000 to 5000 nM | 1000 to 5000 nM
14 | Cn1cc(-c2cc3c(N4CCC(C#N)C4=O)ccnn3c2)cn1 (centres unmarked) [Example 7, 1-(6-(1-methyl-1H-pyrazol-4-yl)pyrrolo[1,2-b]pyridazin-4-yl)-2-oxopyrrolidine-3-carbonitrile] | – | – | – | – | > 100 nM | > 10000 nM | 5000 to 10000 nM | 5000 to 10000 nM
15 | COc1ncccc1-c1cn2nccc2c(N2C[C@@H](C)[C@@](C#N)(C3CC3)C2=O)n1 [Example 250, (3R,4S)-3-cyclopropyl-1-(6-(2-methoxypyridin-3-yl)pyrazolo[1,5-a]pyrazin-4-yl)-4-methyl-2-oxopyrrolidine-3-carbonitrile] | 20 to 50 nM | 100 to 1000 nM | 1000 to 5000 nM | 1000 to 5000 nM | – | – | – | –
16 | Cc1csc(-c2cc3c(N4C[C@@H](C)[C@@](C#N)(C5CC5)C4=O)ccnn3c2)n1 [Example 113, (3R,4S)-3-cyclopropyl-4-methyl-1-(6-(4-methylthiazol-2-yl)pyrrolo[1,2-b]pyridazin-4-yl)-2-oxopyrrolidine-3-carbonitrile trifluoroacetate] | – | – | – | – | 20 to 50 nM | 100 to 1000 nM | 1000 to 5000 nM | 100 to 1000 nM
17 | C[C@@H]1CN(c2ccnn3cc(-c4nccc(O)c4C#N)cc23)C(=O)[C@]1(C#N)C1CC1 [Example 129, 2-(4-((3R,4S)-3-cyano-3-cyclopropyl-4-methyl-2-oxopyrrolidin-1-yl)pyrrolo[1,2-b]pyridazin-6-yl)-4-hydroxynicotinonitrile trifluoroacetate] | – | – | – | – | > 100 nM | > 10000 nM | > 10000 nM | > 10000 nM
18 | C[C@@H]1CN(c2ccnn3cc(-c4nccn5ccnc45)cc23)C(=O)[C@]1(C#N)C1CC1 [Example 123, (3R,4S)-3-cyclopropyl-1-(6-(imidazo[1,2-a]pyrazin-8-yl)pyrrolo[1,2-b]pyridazin-4-yl)-4-methyl-2-oxopyrrolidine-3-carbonitrile trifluoroacetate] | – | – | – | – | > 100 nM | > 10000 nM | > 10000 nM | > 10000 nM
19 | C[C@@H]1CN(c2nc(-c3cccnc3)cn3ncc(F)c23)C(=O)[C@]1(C#N)C1CC1 [Example 222, (3R,4S)-3-cyclopropyl-1-(3-fluoro-6-(pyridin-3-yl)pyrazolo[1,5-a]pyrazin-4-yl)-4-methyl-2-oxopyrrolidine-3-carbonitrile] | 50 to 100 nM | 1000 to 5000 nM | 1000 to 5000 nM | 100 to 1000 nM | – | – | – | –
20 | C[C@@H]1C[C@@](C#N)(C2CC2)C(=O)N1c1ccnn2cc(-c3cnn(C)c3)cc12 [Example 17, (3S,5R)-3-cyclopropyl-5-methyl-1-(6-(1-methyl-1H-pyrazol-4-yl)pyrrolo[1,2-b]pyridazin-4-yl)-2-oxopyrrolidine-3-carbonitrile] | – | – | – | – | > 100 nM | 1000 to 5000 nM | 100 to 1000 nM | 5000 to 10000 nM
21 | Cc1cnn(-c2cc3nccc(N4C[C@@H](C)[C@@](C#N)(C5CC5)C4=O)c3o2)c1 [Example 345, (3R,4S)-3-cyclopropyl-4-methyl-1-(2-(4-methyl-1H-pyrazol-1-yl)furo[3,2-b]pyridin-7-yl)-2-oxopyrrolidine-3-carbonitrile] | 20 to 50 nM | 1000 to 5000 nM | 1000 to 5000 nM | 1000 to 5000 nM | – | – | – | –
22 | C[C@@H]1CN(c2ccnn3cc(-c4cncnc4)cc23)C(=O)[C@]1(C#N)C1CC1 [Example 92, (3R,4S)-3-cyclopropyl-4-methyl-2-oxo-1-(6-(pyrimidin-5-yl)pyrrolo[1,2-b]pyridazin-4-yl)pyrrolidine-3-carbonitrile] | – | – | – | – | 50 to 100 nM | 1000 to 5000 nM | 5000 to 10000 nM | 1000 to 5000 nM
23 | COc1ccnc(-c2cc3c(N4C[C@@H](C)[C@@](C#N)(C5CC5)C4=O)ccnn3c2)n1 [Example 122, (3R,4S)-3-cyclopropyl-1-(6-(4-methoxypyrimidin-2-yl)pyrrolo[1,2-b]pyridazin-4-yl)-4-methyl-2-oxopyrrolidine-3-carbonitrile trifluoroacetate] | – | – | – | – | > 100 nM | 5000 to 10000 nM | > 10000 nM | > 10000 nM
